≈ marks a conversion by molar mass, not a printed value.
Tested on: IgG fraction of anti-ampicillin antiserum (antibodies raised against the hapten-BSA immunogen of Example 2)
Settings: for % CR, Assay 1 / % CR, Assay 2 / % CR, Assay 3: % CR = IC50amp/IC50pen x 100; for IC50, Assay 1 / IC50, Assay 2 / IC50, Assay 3: concentration causing 50% displacement of signal, standards in TBST, ampicillin-HRP conjugate; for IC50, Mean Results / % CR, Mean Results: mean of Assays 1-3; for % CR, Mean Results: relative to 100% for ampicillin
Procedure: An aqueous solution of the immunogen of Example 2 was formulated with Freund's Complete Adjuvant (FCA) to form an emulsion consisting of 2 mg/ml immunogen in 50% (v/v) FCA. Three sheep were immunised with this emulsion, 0.25 ml being subcutaneously injected at each of 4 sites in the flank of each animal. Subsequent immunisations (boosts) contained 1 mg/ml immunogen emulsified in 50% (v/v) Freund's Incomplete Adjuvant (FIA) and were administered in the same manner at monthly intervals for 1 year. Blood sampling took place 7 to 14 days after each boost. Each sample was processed to produce antiserum which was further purified by caprylic acid and ammonium sulfate precipitation to yield an immunoglobulin G (IgG) fraction. The IgG fraction was evaluated by competitive ELISA, microtiter plate assay, as described below.
Serial dilutions of the IgG fraction of each antiserum to be tested (prepared in accordance with Example 4) were prepared in 10 mM Tris, pH 8.5. The wells of an enhanced binding 96 well polystyrene microtiter plate were coated with these dilutions (as shown in FIG. 2) by incubation at 37° C. for 2 hours (125 μl/well). The plate was washed 4 times with Tris buffered saline (pH7.4) containing Tween (Trade Mark) 20 (TBST) and tapped dry. […] 50 μl of TBST was added to the remaining (control) wells. […] The plate was incubated at 37° C. for 2 hours. The excess unbound conjugate was removed by washing 6 times over a 10 minute period with TBST. 125 μl of tetramethylbenzidine (TMB) substrate solution was added to each well of the plate, which was then incubated for 15 to 20 minutes, in the dark, at room temperature. The reaction was terminated by addition of 125 μl 0.2M H2SO4 to each well. The absorbance was then measured at 450 nm using a microtiter plate reader.
Standard solutions of benzylpenicillin (penicillin G-PenG), amoxycillin (Amox), cloxacillin (Clox), dicloxacillin (Diclox) and oxacillin (Oxa) were prepared in TBST at 0, 1, 5, 10, 50, 100, 200 and 500 ng/ml.

Row | SMILES | % CR, Assay 1 | IC50, Assay 1 | % CR, Assay 2 | IC50, Assay 2 | % CR, Assay 3 | IC50, Assay 3 | IC50, Mean Results | % CR, Mean Results
1 | Cc1onc(-c2ccccc2)c1C(=O)N[C@@H]1C(=O)N2[C@@H]1SC(C)(C)[C@@H]2C(=O)O [Oxa, oxacillin] | 42.5% | 4.0 ng/mL (≈ 9.96 nM) | 36% | 7.0 ng/mL (≈ 17.4 nM) | 38% | 6.6 ng/mL (≈ 16.4 nM) | 5.9 ng/mL (≈ 14.7 nM) | 39%
2 | CC1(C)SC2C(NC(=O)C(N)c3ccc(O)cc3)C(=O)N2C1C(=O)O (stereo not drawn) [Amox, amoxycillin] | 94% | 1.8 ng/mL (≈ 4.93 nM) | 83% | 3.0 ng/mL (≈ 8.21 nM) | 83% | 3.0 ng/mL (≈ 8.21 nM) | 2.6 ng/mL (≈ 7.12 nM) | 87%
3 | CC1(C)S[C@@H]2[C@H](NC(=O)Cc3ccccc3)C(=O)N2[C@H]1C(=O)O [PenG, benzylpenicillin] | 63% | 2.7 ng/mL (≈ 8.07 nM) | 78% | 3.2 ng/mL (≈ 9.57 nM) | 74% | 3.4 ng/mL (≈ 10.2 nM) | 3.1 ng/mL (≈ 9.27 nM) | 72%
4 | CC1(C)S[C@@H]2[C@H](NC(=O)[C@H](N)c3ccccc3)C(=O)N2[C@H]1C(=O)O [Amp, ampicillin] | 100% | 1.7 ng/mL (≈ 4.87 nM) | 100% | 2.5 ng/mL (≈ 7.15 nM) | 100% | 2.5 ng/mL (≈ 7.15 nM) | 2.2 ng/mL (≈ 6.3 nM) | 100%
5 | Cc1onc(-c2ccccc2Cl)c1C(=O)N[C@@H]1C(=O)N2[C@@H]1SC(C)(C)[C@@H]2C(=O)O [Cloxa, cloxacillin] | 50% | 3.4 ng/mL (≈ 7.8 nM) | 43% | 5.8 ng/mL (≈ 13.3 nM) | 43% | 5.8 ng/mL (≈ 13.3 nM) | 5 ng/mL (≈ 11.5 nM) | 45%
6 | Cc1onc(-c2c(Cl)cccc2Cl)c1C(=O)N[C@@H]1C(=O)N2[C@@H]1SC(C)(C)[C@@H]2C(=O)O [Dicloxa, dicloxacillin] | 45% | 3.8 ng/mL (≈ 8.08 nM) | 42% | 6.0 ng/mL (≈ 12.8 nM) | 51% | 4.9 ng/mL (≈ 10.4 nM) | 4.9 ng/mL (≈ 10.4 nM) | 46%
